Laboratory results published in PubChem BioAssay AID256 (DTP/NCI, 2004).
Several values for one entry are separate records, joined by “and”; a condition that tells them apart may be missing. Equal entries are not always repeated. Toxic doses and inconclusive results are not listed. How the source made its calls: active means survival T/C of 150% or more; inactive means T/C below 125% in these data.

System: CD2F1 mice, L1210 leukemia ip, survival T/C
Experiment: NCI In Vivo Anticancer Drug Screen. Data for tumor model L1210 Leukemia (intraperitoneal) in CD2F1 (CDF1) mice
Details: higher = longer survival
How it was run: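 Transplantable tumor in mice; compound-treated vs vehicle-treated groups. Read-out = treated/control ratio of the measured endpoint.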

[1] = endpoint: mean survival time, dose: 100.0 mg/kg/injection, schedule: Q01DX001 (ip), vehicle: saline with Tween-80
[2] = endpoint: mean survival time, dose: 200.0 mg/kg/injection, schedule: Q01DX001 (ip), vehicle: saline with Tween-80
[3] = endpoint: mean survival time, dose: 400.0 mg/kg/injection, schedule: Q01DX001 (ip), vehicle: saline with Tween-80
[4] = endpoint: mean survival time, dose: 12.5 mg/kg/injection, schedule: Q01DX009 (ip), vehicle: saline with Tween-80
[5] = endpoint: mean survival time, dose: 25.0 mg/kg/injection, schedule: Q01DX009 (ip), vehicle: saline with Tween-80
[6] = endpoint: mean survival time, dose: 50.0 mg/kg/injection, schedule: Q01DX009 (ip), vehicle: saline with Tween-80
[7] = endpoint: mean survival time, dose: 100.0 mg/kg/injection, schedule: Q01DX009 (ip), vehicle: saline with Tween-80
[8] = endpoint: mean survival time, dose: 100.0 mg/kg/injection, schedule: Q04DX003 (ip), vehicle: saline with Tween-80
[9] = endpoint: mean survival time, dose: 200.0 mg/kg/injection, schedule: Q04DX003 (ip), vehicle: saline with Tween-80
[10] = endpoint: mean survival time, dose: 400.0 mg/kg/injection, schedule: Q04DX003 (ip), vehicle: saline with Tween-80
[11] = endpoint: mean survival time, dose: 50.0 mg/kg/injection, schedule: Q01DX001 (ip), vehicle: saline with Tween-80

Measured: T/C

Nc1cc2c(nnn2C(c2ccccc2)c2ccccc2)c(N)n1
inactive: endpoint: mean survival time, dose: 100.0 mg/kg/injection, schedule: Q01DX001 (ip), vehicle: carboxymethylcellulose (CMC) 98 % of control | endpoint: mean survival time, dose: 200.0 mg/kg/injection, schedule: Q01DX001 (ip), vehicle: carboxymethylcellulose (CMC) 92 % of control | endpoint: mean survival time, dose: 400.0 mg/kg/injection, schedule: Q01DX001 (ip), vehicle: carboxymethylcellulose (CMC) 95 % of control

Clc1ccc(Oc2ccccc2)cc1
inactive: [1] 96 % of control | [2] 86 % of control | [3] 91 % of control

CCCCOP(=O)(OC)OCCCC
inactive: endpoint: mean survival time, dose: 100.0 mg/kg/injection, schedule: Q04DX002 (ip), vehicle: saline with Tween-80 94 % of control | endpoint: mean survival time, dose: 200.0 mg/kg/injection, schedule: Q04DX002 (ip), vehicle: saline with Tween-80 102 % of control

CC(C)(CO)COC(=O)NC1=C(N2CC2)C(=O)C(NC(=O)OCC(C)(C)CO)=C(N2CC2)C1=O
inactive: endpoint: mean survival time, dose: 0.75 mg/kg/injection, schedule: Q01DX009 (ip), vehicle: water 119 % of control and 121 % of control | endpoint: mean survival time, dose: 1.5 mg/kg/injection, schedule: Q01DX009 (ip), vehicle: water 122 % of control and 106 % of control
active: endpoint: mean survival time, dose: 12.0 mg/kg/injection, schedule: Q01DX009 (ip), vehicle: water 166 % of control and 169 % of control

Cc1csc2ncn(C3OC(CO)C(O)C3O)c(=O)c12 (stereo not given)
inactive: [4] 110 % of control | [5] 101 % of control | [6] 94 % of control

Cc1cc(Cl)ccc1NC(=O)SCc1ccc(Cl)cc1
inactive: [6] 95 % of control | [7] 100 % of control | endpoint: mean survival time, dose: 200.0 mg/kg/injection, schedule: Q01DX009 (ip), vehicle: saline with Tween-80 103 % of control

c1ccc(-c2nc3ccccc3s2)nc1
inactive: [8] 96 % of control | [9] 103 % of control | [10] 96 % of control

Nc1nc2c(ncn2-c2ccc(O)cc2)c(=O)[nH]1
inactive: [1] 96 % of control | [2] 87 % of control | [3] 91 % of control

CC(C)S(=O)(=O)/C=C(\I)c1ccccc1
inactive: endpoint: mean survival time, dose: 100.0 mg/kg/injection, schedule: Q04DX003 (ip), vehicle: saline 100 % of control | endpoint: mean survival time, dose: 200.0 mg/kg/injection, schedule: Q04DX003 (ip), vehicle: saline 102 % of control

O=Cc1c(O)c2ccccc2[nH]c1=O
inactive: endpoint: mean survival time, dose: 6.25 mg/kg/injection, schedule: Q01DX009 (ip), vehicle: saline with Tween-80 101 % of control | [4] 103 % of control | [5] 103 % of control | [6] 112 % of control | [7] 106 % of control | endpoint: median survival time, dose: 12.0 mg/kg/injection, schedule: Q01DX009 (ip), vehicle: Klucel (hydroxypropylcellulose) (HPC) 98 % of control | endpoint: median survival time, dose: 25.0 mg/kg/injection, schedule: Q01DX009 (ip), vehicle: Klucel (hydroxypropylcellulose) (HPC) 105 % of control | endpoint: median survival time, dose: 50.0 mg/kg/injection, schedule: Q01DX009 (ip), vehicle: Klucel (hydroxypropylcellulose) (HPC) 113 % of control | endpoint: median survival time, dose: 100.0 mg/kg/injection, schedule: Q01DX009 (ip), vehicle: Klucel (hydroxypropylcellulose) (HPC) 104 % of control

COc1ccc(Cc2ccc(OC)c(OC)c2)cc1OC
inactive: endpoint: median survival time, dose: 25.0 mg/kg/injection, schedule: Q01DX005 (ip), vehicle: saline with Tween-80 96 % of control | endpoint: median survival time, dose: 25.0 mg/kg/injection, schedule: Q04DX003 (ip), vehicle: saline 100 % of control | endpoint: median survival time, dose: 50.0 mg/kg/injection, schedule: Q01DX005 (ip), vehicle: saline with Tween-80 98 % of control | endpoint: median survival time, dose: 50.0 mg/kg/injection, schedule: Q04DX003 (ip), vehicle: saline 100 % of control | endpoint: median survival time, dose: 100.0 mg/kg/injection, schedule: Q01DX005 (ip), vehicle: saline with Tween-80 98 % of control | endpoint: median survival time, dose: 100.0 mg/kg/injection, schedule: Q04DX003 (ip), vehicle: saline 100 % of control | endpoint: median survival time, dose: 200.0 mg/kg/injection, schedule: Q01DX005 (ip), vehicle: saline with Tween-80 97 % of control | endpoint: median survival time, dose: 200.0 mg/kg/injection, schedule: Q04DX003 (ip), vehicle: saline 106 % of control | endpoint: median survival time, dose: 400.0 mg/kg/injection, schedule: Q01DX005 (ip), vehicle: saline with Tween-80 95 % of control | endpoint: median survival time, dose: 400.0 mg/kg/injection, schedule: Q04DX003 (ip), vehicle: saline 100 % of control

COC1C=CC=CC=C1
inactive: endpoint: mean survival time, dose: 15.0 mg/kg/injection, schedule: Q04DX003 (ip), vehicle: saline sonified 100 % of control | endpoint: mean survival time, dose: 30.0 mg/kg/injection, schedule: Q04DX003 (ip), vehicle: saline sonified 94 % of control | endpoint: mean survival time, dose: 60.0 mg/kg/injection, schedule: Q04DX003 (ip), vehicle: saline sonified 100 % of control

Cc1ccc(C(=O)C(=O)c2ccc(C)cc2C)c(C)c1
inactive: endpoint: mean survival time, dose: 75.0 mg/kg/injection, schedule: Q01DX001 (ip), vehicle: other 94 % of control | endpoint: mean survival time, dose: 150.0 mg/kg/injection, schedule: Q01DX001 (ip), vehicle: other 87 % of control | endpoint: mean survival time, dose: 300.0 mg/kg/injection, schedule: Q01DX001 (ip), vehicle: other 94 % of control

NC(N)=NC(N)=Nc1ccc(-c2ccccc2)cc1
inactive: endpoint: mean survival time, dose: 25.0 mg/kg/injection, schedule: Q01DX001 (ip), vehicle: saline with Tween-80 100 % of control | [11] 103 % of control | [1] 93 % of control

CN1C2C=C(c3ccccc3)C(Br)C1CC2 (stereo not given)
inactive: endpoint: mean survival time, dose: 20.0 mg/kg/injection, schedule: Q01DX009 (ip), vehicle: saline 103 % of control | endpoint: mean survival time, dose: 40.0 mg/kg/injection, schedule: Q01DX009 (ip), vehicle: saline 112 % of control | endpoint: mean survival time, dose: 80.0 mg/kg/injection, schedule: Q01DX009 (ip), vehicle: saline 110 % of control

Nc1ncnc2c1nc(Cl)n2C1OC2COP(=O)(O)OC2C1O (stereo not given)
inactive: endpoint: mean survival time, dose: 12.5 mg/kg/injection, schedule: Q01DX005 (ip), vehicle: water 96 % of control | endpoint: mean survival time, dose: 25.0 mg/kg/injection, schedule: Q01DX005 (ip), vehicle: water 100 % of control | endpoint: mean survival time, dose: 50.0 mg/kg/injection, schedule: Q01DX005 (ip), vehicle: water 100 % of control

O=C1CSC1=C(c1ccccc1)c1ccccc1
inactive: endpoint: mean survival time, dose: 12.5 mg/kg/injection, schedule: Q04DX002 (ip), vehicle: saline with Tween-80 94 % of control | endpoint: mean survival time, dose: 25.0 mg/kg/injection, schedule: Q04DX002 (ip), vehicle: saline with Tween-80 94 % of control | endpoint: mean survival time, dose: 50.0 mg/kg/injection, schedule: Q04DX002 (ip), vehicle: saline with Tween-80 94 % of control

Oc1c(Cl)c(Cl)c(Cl)c2ccccc12
inactive: [8] 100 % of control | [9] 97 % of control | [10] 100 % of control

CCOC(=O)C(C#N)CC (stereo not given)
inactive: endpoint: mean survival time, dose: 100.0 mg/kg/injection, schedule: Q01DX001 (ip), vehicle: saline 98 % of control | endpoint: mean survival time, dose: 200.0 mg/kg/injection, schedule: Q01DX001 (ip), vehicle: saline 98 % of control | endpoint: mean survival time, dose: 400.0 mg/kg/injection, schedule: Q01DX001 (ip), vehicle: saline 107 % of control

c1ccc(C2=C(c3ccccn3)N=c3ccccc3=c3ccccc3=N2)nc1
inactive: [1] 101 % of control | [2] 111 % of control | [3] 93 % of control

Cc1cn(C2CC(O)C(Cn3ccc4ccccc43)O2)c(=O)[nH]c1=O (stereo not given)
inactive: endpoint: mean survival time, dose: 12.5 mg/kg/injection, schedule: Q01DX005 (ip), vehicle: Klucel (hydroxypropylcellulose) (HPC) 94 % of control | endpoint: mean survival time, dose: 25.0 mg/kg/injection, schedule: Q01DX005 (ip), vehicle: Klucel (hydroxypropylcellulose) (HPC) 90 % of control

CCCCN(CCCC)C(Cl)=Nc1ccccc1
inactive: endpoint: mean survival time, dose: 6.25 mg/kg/injection, schedule: Q01DX009 (ip), vehicle: Klucel (hydroxypropylcellulose) (HPC) 95 % of control and 105 % of control | endpoint: mean survival time, dose: 12.5 mg/kg/injection, schedule: Q01DX009 (ip), vehicle: Klucel (hydroxypropylcellulose) (HPC) 92 % of control and 104 % of control | endpoint: mean survival time, dose: 25.0 mg/kg/injection, schedule: Q01DX009 (ip), vehicle: Klucel (hydroxypropylcellulose) (HPC) 94 % of control and 95 % of control | endpoint: mean survival time, dose: 50.0 mg/kg/injection, schedule: Q01DX009 (ip), vehicle: Klucel (hydroxypropylcellulose) (HPC) 94 % of control and 95 % of control | endpoint: mean survival time, dose: 100.0 mg/kg/injection, schedule: Q01DX009 (ip), vehicle: Klucel (hydroxypropylcellulose) (HPC) 93 % of control | endpoint: mean survival time, dose: 200.0 mg/kg/injection, schedule: Q01DX009 (ip), vehicle: Klucel (hydroxypropylcellulose) (HPC) 90 % of control

Cc1c2c(cc3c1CCC1(C)C(C(C)CCC(C)C(C)C)CC(O)C31O)CCCC2 (stereo not given)
inactive: [11] 92 % of control | [1] 94 % of control | [8] 96 % of control | [2] 92 % of control | [9] 98 % of control | [10] 98 % of control
